Laboratory results taken from patent US20030166139A1 (priority 2001, published 2003).

System: EDIM rotavirus
Parameters: species or system mice
Conditions: mouse, in vivo

Compared with RLSFQLMRPPNMTP [Peptide #6-14], CAINAPANIQQFEHIVQLRRVLTTA [compound 1] is lower in “% Protection” value: 98% for the first, 0% for the second.

First: QEYAIPVGPVFPPGMNWTDLITNYSPSRED [compound 10]
Second: PDAERFSFPRVINSADGA [compound 2]
The “% Protection” value of the first is lower: 0% for the first, 70% for the second.

Going from VLADASETMLANVTSVRQEYAI [compound 9] to “TDLITNYSPSREDNLQRVFTVASIRSMLVK [compound 11]”, the “% Protection” value rises from 0% to 65%.

Going from “NGQVINTYQARFGTIVARNFDTIRLSFQLM [compound 5]” to “FNPVILRPNNVEVEFLLNGQVINTYQARF [compound 4]”, the “% Protection” value rises from 0% to 77%.

First: MTPAVTALFPNAQPFEHHATVGLTLRIDSA [compound 7]
Second: FSFPRVINSADGATTWYFNPVILRPNNVEV [compound 3]
The “% Protection” value of the first is lower: 0% for the first, 58% for the second.

Compared with “HATVLTLRIDSAICESVLADASETMLANV [compound 8]”, RNFDTIRLSFQLMRPPNMTPAVTAL [Peptide #6] is higher in “% Protection” value: 51% for the first, 85% for the second.

With QS-21 [reference compound] the “% Protection from rotavirus shedding” value was 43%.

Same assay, conditions: mouse, in vivo, po

For QS-21 [reference compound], the “% Protection from rotavirus shedding” value was 71%.

System: not given
Conditions: in vivo; cited from earlier work

In the case of QS-21 [reference compound], the “safety in human clinical trials” value is given as “safe”.
